According to patent publication US20210171948A1, “COMPOSITIONS AND METHODS FOR TARGETING GLYPICAN-2 IN THE TREATMENT OF CANCER” (Shepherd Therapeutics, Inc., priority 2019, published 2021):
Strand notation (5' to 3'): a small letter for the sugar, then the base; units joined by * are phosphorothioate-linked, units joined directly phosphodiester-linked; [ ] holds rarer units or linkages, { } end groups; capitals alone tell only the bases. d = 2'-deoxy (DNA); r = 2'-OH (RNA)

Columns and labels:
[1] = test system: SKNAS cells; experiment: Etoposide IC50 in siRNA-transfected cells, Cell Titer Glo 2.0 viability (Example 9); type: cell-based; conditions: for Data Summary: effect of knockdown on sensitivity to etoposide: SKNAS; for IC50: SKNAS cells transfected with the labelled siRNA, etoposide added 24 hours post transfection, 72 hour incubation
Description: (§1) GPC2 mRNA expression was reduced and changes in cell viability were assessed in multiple neuroblastoma cell lines. Cells were transfected with either a control siRNA or with GPC2 siRNA sequences 3, 5 or 7 from Table 7 using the RNAiMAX Lipofectamine kit (Invitrogen, Carlsbad, Calif.) as previously described in 96 wells for viability assays. Etoposide was added at increasing concentrations (0-15 uM) to transfected cells at 24 hours post transfection. Following a 72 hour incubation period, viability measurement were made using Cell Titer Glo 2.0.

[2] = test system: CHLA-136 cells; experiment: Doxorubicin IC50 in siRNA-transfected cells, Cell Titer Glo viability (Example 8); type: cell-based; conditions: for IC50: CHLA-136 cells transfected with the labelled siRNA, doxorubicin added 24 hours post transfection, 72 hour incubation
Description: as §1, with “with GPC-2” for “with GPC2”, “assays. Doxorubicin” for “assays. Etoposide”, “concentrations (0-5” for “concentrations (0-15”, “viability measurements” for “viability measurement”, “Titer Glo.” for “Titer Glo 2.0.”

[3] = test system: KELLY cells; experiment: as above; type: cell-based; conditions: for Data Summary: effect of knockdown on sensitivity to doxorubicin: KELLY; for IC50: KELLY cells transfected with the labelled siRNA, doxorubicin added 24 hours post transfection, 72 hour incubation
Description: as §1, with “with GPC-2” for “with GPC2”, “assays. Doxorubicin” for “assays. Etoposide”, “concentrations (0-5” for “concentrations (0-15”, “viability measurements” for “viability measurement”, “Titer Glo.” for “Titer Glo 2.0.”

[4] = test system: CHLA-172 cells; experiment: as above; type: cell-based; conditions: for IC50: CHLA-172 cells transfected with the labelled siRNA, doxorubicin added 24 hours post transfection, 72 hour incubation
Description: as §1, with “with GPC-2” for “with GPC2”, “assays. Doxorubicin” for “assays. Etoposide”, “concentrations (0-5” for “concentrations (0-15”, “viability measurements” for “viability measurement”, “Titer Glo.” for “Titer Glo 2.0.”

[5] = test system: SKNAS cells; experiment: as above; type: cell-based; conditions: for Data Summary: effect of knockdown on sensitivity to doxorubicin: SKNAS; for IC50: SKNAS cells transfected with the labelled siRNA, doxorubicin added 24 hours post transfection, 72 hour incubation
Description: as §1, with “with GPC-2” for “with GPC2”, “assays. Doxorubicin” for “assays. Etoposide”, “concentrations (0-5” for “concentrations (0-15”, “viability measurements” for “viability measurement”, “Titer Glo.” for “Titer Glo 2.0.”

[6] = test system: GPC2 mRNA; experiment: GPC2 mRNA knockdown in multiple cancer cell lines, 96 hour (Example 3); type: cell-based, human; conditions: 96 hour incubation; for GPC2 knockdown across the cell lines of Table 8: multiple cancer cell lines
Description: siRNAs 1-5 from Table 7 were diluted to 40 nM in OptiMEM media and mixed in a 1:3 ratio (weight by volume) with RNAiMAX. This was incubated for 15 minutes at room temperature and dispensed onto cells plated in a 6 well tissue culture plate. Total RNA samples were collected at either 72 hours post transfection to compare knockdown efficiency (FIG. 2A), or at 24, 48, 72 or 96 hours post transfection to determine the extent of GPC2 mRNA knockdown over time (FIG. 2B). Expression levels of mRNA of GPC2 were measured in these samples using primers specific for GPC2 obtained commercially from Thermofisher (Carlsbad, Calif.) and standard qPCR technique.
GPC2 mRNA knockdown and changes in cell viability were assessed in multiple cancer cell lines. Cells were transfected with either a scrambled control siRNA or with GPC2 siRNA sequence 3 or sequence 5 from Table 7 using the RNAiMAX Lipofectamine kit (Invitrogen, Carlsbad, Calif.) as previously described in Example 2, either in 96 well format (for viability assays) or 6 well format (for knockdown assessment). Following a 96 hour incubation period, cells were washed and the viability measurement was assessed using Cell Titer Glo 2.0. Total RNA was isolated from the 6 well plate samples to determine knockdown efficiency.

[7] = test system: SH-SY5Y cells; experiment: Carboplatin IC50 in siRNA-transfected cells, Cell Titer Glo 2.0 viability (Example 6); type: cell-based; conditions: for IC50: SH-SY5Y cells transfected with the labelled siRNA, carboplatin added 24 hours post transfection, 72 hour incubation; for Data Summary: effect of knockdown on sensitivity to carboplatin: SH-SY5Y
Description: as §1, with “reduced using the indicated siRNAs” for “reduced”, “Carboplatin” for “Etoposide”, “(0 to 150” for “(0-15”, “measurements” for “measurement”

[8] = test system: CHLA-90 cells; experiment: as above; type: cell-based; conditions: for Data Summary: effect of knockdown on sensitivity to carboplatin: CHLA-90; for IC50: CHLA-90 cells transfected with the labelled siRNA, carboplatin added 24 hours post transfection, 72 hour incubation
Description: as §1, with “reduced using the indicated siRNAs” for “reduced”, “Carboplatin” for “Etoposide”, “(0 to 150” for “(0-15”, “measurements” for “measurement”

[9] = test system: SK-N-BE2 cells; experiment: as above; type: cell-based; conditions: for Data Summary: effect of knockdown on sensitivity to carboplatin: SK-N-BE2; for IC50: SK-N-BE2 cells transfected with the labelled siRNA, carboplatin added 24 hours post transfection, 72 hour incubation
Description: as §1, with “reduced using the indicated siRNAs” for “reduced”, “Carboplatin” for “Etoposide”, “(0 to 150” for “(0-15”, “measurements” for “measurement”

[10] = test system: CHP212 cells; experiment: as above; type: cell-based; conditions: for Data Summary: effect of knockdown on sensitivity to carboplatin: CHP212; for IC50: CHP212 cells transfected with the labelled siRNA, carboplatin added 24 hours post transfection, 72 hour incubation
Description: as §1, with “reduced using the indicated siRNAs” for “reduced”, “Carboplatin” for “Etoposide”, “(0 to 150” for “(0-15”, “measurements” for “measurement”

[11] = test system: CHP212 neuroblastoma cell line; experiment: Cell viability after siRNA transfection, 96 hour (Example 4, FIG. 4B); type: cell-based; conditions: 96 hour incubation (FIG. 4B)
Description: The extent of GPC2 mRNA reduction was assessed with additional GPC2 siRNA sequences in the CHP212 neuroblastoma cell line. Cells were transfected with either a scrambled control siRNA or with GPC2 siRNA sequences 3 or 5, or with siRNA sequences 6-11 (Sigma) using the RNAiMAX Lipofectamine kit (Invitrogen, Carlsbad, Calif.) as previously described. Following a 96 hour incubation period, total RNA samples were collected and viability was measured in parallel plated cells.

[12] = test system: GPC2 protein; experiment: GPC2 protein expression by flow cytometry of immunostained cells after siRNA transfection; type: cell-based, human; conditions: for Time point at which GPC2 protein expression started to decrease: CHP212, SH-SY5Y and CHLA90 neuroblastoma cell lines
Description: The extent of GPC2 mRNA reduction (knockdown) and corresponding protein level expression changes were assessed in three neuroblastoma cell lines following siRNA knockdown of GPC2. The CHP212 neuroblastoma cell line (FIG. 5A and FIG. 5D), the SH-SY5Y neuroblastoma cell line (FIG. 5B and FIG. 5E) and the CHLA90 neuroblastoma cell line (FIG. 5C and FIG. 5F) were transfected with GPC2 siRNA sequences 5 and 7 from Table 7 and a scrambled control siRNA using the RNAiMAX Lipofectamine kit (Invitrogen, Carlsbad, Calif.) as previously described. Following a 24, 48, or 72 hour incubation period, cells were washed and total RNA was isolated for measuring GPC2 mRNA expression. For protein analysis, cells were fixed, immunostained using an antibody against GPC2 protein, protein expression was measured via flow cytometry. As shown, GPC2 mRNA knockdown was observed beginning at the 24 hr time point and lasted for at least 72 hours. GPC2 protein expression started to decrease at the 48 hr time point.

[13] = GIST-T1 (Gastrointestinal Stromal)
[14] = CHLA90 cells, at 72 hours (FIG. 5F)
[15] = CHP212 cells, at 48 and 72 hours (FIG. 5D)
[16] = SH-SY5Y cells, at 48 and 72 hours (FIG. 5E)

GPC2 siRNA 3: siRNA duplex: sense CCUGCUUGGACCUCGAUAA[dT][dT] (SEQ ID NO: 207), anti-sense UUAUCGAGGUCCAAGCAGG[dT][dT] (SEQ ID NO: 208) (sense CCUGCUUGGACCUCGAUAANN; antisense UUAUCGAGGUCCAAGCAGGNN; 3' dTdT overhangs, chemistry not fully specified; listed as Homo sapiens)
Data Summary: effect of knockdown on sensitivity to etoposide [1]: increases sensitivity to etoposide
IC50 [1]: 40 nM
IC50 [2]: 170 nM
Data Summary: effect of knockdown on sensitivity to doxorubicin [3]: not increase sensitivity
IC50 [3]: 70 nM
IC50 [4]: 2000 nM
Data Summary: effect of knockdown on sensitivity to doxorubicin [5]: increases sensitivity to
IC50 [5]: 40 nM
% GPC2 knockdown ([6]; CHP212 (Neuroblastoma)): 50%
% GPC2 knockdown ([6]; COV362 (Ovarian Carcinoma)): 85%
% GPC2 knockdown [6, 13]: 61%
% GPC2 knockdown ([6]; IMR32 (Neuroblastoma)): 36%
% GPC2 knockdown ([6]; MCF7 (Breast)): 72%
% GPC2 knockdown ([6]; RH30 (Rhabdomyosarcoma)): 78%
% GPC2 knockdown ([6]; RH41 (Rhabdomyosarcoma)): 37%
% GPC2 knockdown ([6]; SKNAS (Neuroblastoma)): 25%
% GPC2 knockdown ([6]; SNU16 (Gastric)): 53%
% GPC2 knockdown ([6]; TC32 (Ewing's Sarcoma)): 69%
% GPC2 knockdown ([6]; TC71 (Ewing's Sarcoma)): 42%
% GPC2 knockdown ([6]; TOV112D (Ovarian Carcinoma)): 89%
GPC2 knockdown across the cell lines of Table 8 [6]: GPC2 knockdown was observed in each cell line
IC50 [7]: 2300 nM
Data Summary: effect of knockdown on sensitivity to carboplatin [8]: increases sensitivity to
IC50 [8]: 100000 nM
Data Summary: effect of knockdown on sensitivity to carboplatin [9]: increases sensitivity to
IC50 [9]: 27900 nM
Data Summary: effect of knockdown on sensitivity to carboplatin [10]: increases sensitivity to
IC50 [10]: 19900 nM

GPC2 siRNA 5: siRNA duplex: sense CUCAGUAGCCCAGCACUCU[dT][dT] (SEQ ID NO: 211), anti-sense AGAGUGCUGGGCUACUGAG[dT][dT] (SEQ ID NO: 212) (sense CUCAGUAGCCCAGCACUCUTT; antisense AGAGUGCUGGGCUACUGAGTT; sugars from the 5' end r19 d2, backbone not given here; listed as Homo sapiens)
Data Summary: effect of knockdown on sensitivity to etoposide [1]: increases sensitivity to etoposide
IC50 [1]: 20 nM
Viability decrease among sequences 3, 5, 6-11 [11]: greater viability decrease
Data Summary: effect of knockdown on sensitivity to doxorubicin ([2]; CHLA-136): KD with sequence 5 increases
IC50 [2]: 80 nM
Data Summary: effect of knockdown on sensitivity to doxorubicin [3]: not increase sensitivity
IC50 [3]: 60 nM
Data Summary: effect of knockdown on sensitivity to doxorubicin ([4]; CHLA-172): KD with sequence 5 increases
IC50 [4]: 900 nM
Data Summary: effect of knockdown on sensitivity to doxorubicin [5]: increases sensitivity to
IC50 [5]: 20 nM
% GPC2 knockdown ([6]; CHP212 (Neuroblastoma)): 65%
% GPC2 knockdown ([6]; COV362 (Ovarian Carcinoma)): 79%
% GPC2 knockdown [6, 13]: 76%
% GPC2 knockdown ([6]; IMR32 (Neuroblastoma)): 25%
% GPC2 knockdown ([6]; MCF7 (Breast)): 82%
% GPC2 knockdown ([6]; RH30 (Rhabdomyosarcoma)): 83%
% GPC2 knockdown ([6]; RH41 (Rhabdomyosarcoma)): 60%
% GPC2 knockdown ([6]; SKNAS (Neuroblastoma)): 44%
% GPC2 knockdown ([6]; SNU16 (Gastric)): 25%
% GPC2 knockdown ([6]; TC32 (Ewing's Sarcoma)): 57%
% GPC2 knockdown ([6]; TC71 (Ewing's Sarcoma)): 33%
% GPC2 knockdown ([6]; TOV112D (Ovarian Carcinoma)): 78%
GPC2 knockdown across the cell lines of Table 8 [6]: GPC2 knockdown was observed in each cell line
Data Summary: effect of knockdown on sensitivity to carboplatin [7]: increases sensitivity to
IC50 [7]: 1550 nM
Data Summary: effect of knockdown on sensitivity to carboplatin [8]: increases sensitivity to
IC50 [8]: 100000 nM
Data Summary: effect of knockdown on sensitivity to carboplatin [9]: increases sensitivity to
IC50 [9]: 11000 nM
Data Summary: effect of knockdown on sensitivity to carboplatin [10]: increases sensitivity to
IC50 [10]: 10400 nM
GPC2 protein expression (Mean Fluorescence (FL1) Intensity) [12, 14]: Reduced GPC2 protein expression
Time point at which GPC2 protein expression started to decrease [12]: 48 h
GPC2 protein expression (Mean Fluorescence (FL1) Intensity) [12, 15]: Reduced GPC2 protein expression
GPC2 protein expression (Mean Fluorescence (FL1) Intensity) [12, 16]: Reduced GPC2 protein expression

GPC2 siRNA 7: siRNA duplex: sense CUCCUUUCUGGUUCACACA[dT][dT] (SEQ ID NO: 215), anti-sense UGUGUGAACCAGAAAGGAG[dT][dT] (SEQ ID NO: 216) (sense rCrUrCrCrUrUrUrCrUrGrGrUrUrCrArCrArCrAdTdT; antisense rUrGrUrGrUrGrArArCrCrArGrArArArGrGrArGdTdT; listed as Homo sapiens)
Viability decrease among sequences 3, 5, 6-11 [11]: greater viability decrease
Data Summary: effect of knockdown on sensitivity to carboplatin [7]: increases sensitivity to
IC50 [7]: 470 nM
Data Summary: effect of knockdown on sensitivity to carboplatin [8]: increases sensitivity to
IC50 [8]: 15000 nM
Data Summary: effect of knockdown on sensitivity to carboplatin [9]: increases sensitivity to
IC50 [9]: 2500 nM
Data Summary: effect of knockdown on sensitivity to carboplatin [10]: increases sensitivity to
IC50 [10]: 8140 nM
GPC2 protein expression (Mean Fluorescence (FL1) Intensity) [12, 14]: Reduced GPC2 protein expression
Time point at which GPC2 protein expression started to decrease [12]: 48 h
GPC2 protein expression (Mean Fluorescence (FL1) Intensity) [12, 15]: Reduced GPC2 protein expression
GPC2 protein expression (Mean Fluorescence (FL1) Intensity) [12, 16]: Reduced GPC2 protein expression
